Results from article PMC7482066, “Unstable Mechanisms of Resistance to Inhibitors of Escherichia coli Lipoprotein Signal Peptidase” (mBio, 2020).
In brackets after ≈: the same amount, converted by molar mass.

How the values were obtained:
Format in all cases: cell-based
S. aureus USA300 = experiment: MIC; conditions: in words
Experimental: (§1) MICs of compounds in each strain were determined in cation-adjusted Mueller-Hinton II (MHII) broth or MHII agar according to the Clinical and Laboratory Standards Institute protocol (CLSI 2006). To measure the effect of protein binding on activity, MIC assays were performed in the presence of 50% heat-inactivated human serum. The serum killing assay was performed as described previously ([43]). FOR assays and growth on plates containing G0790 were always performed on MHII agarose plates.

E. coli CFT073 imp4213 = experiment: MIC; conditions: in words
Experimental: as §1

A. baumannii 17978 = experiment: MIC; conditions: A. baumannii ATCC 17978; in words
Experimental: as §1

E. coli CFT073 Δlpp = experiment: MIC
Experimental: as §1

E. coli MG1655 ΔtolC = experiment: MIC; conditions: E. coli MG1655 WT vs MG1655 ΔtolC
Experimental: as §1

E. coli CFT073(pBADlspA) = experiment: MIC; conditions: in words
Experimental: as §1

[1] = tested on: G0790-resistant E. coli CFT073; experiment: MIC against G0790-resistant CFT073 strains
Experimental: as §1
Frequencies of resistance (FORs) of G0790 were determined for E. coli CFT073, E. cloacae (ATCC 13047), and K. pneumoniae (ATCC 700603) as previously published ([70]). To determine the FOR, 3 to 4 colonies of the strain to be tested were picked from a fresh plate and diluted to an optical density at 600 nm (OD600) of 0.00001 in 1 ml of cation-adjusted MHBII. Ten independent 5-ml cultures in MHBII were prepared by inoculating 5 μl (approximately 1 × 10^3 CFU) and incubated at 37°C for 18 h. The bacteria were pelleted by centrifugation at 4000 × g at 4°C for 15 min and resuspended in 0.5 ml fresh MHBII. Two hundred fifty microliters of the bacterial suspension was plated evenly on MHII agarose plates containing globomycin or G0790 at a final concentration of 4× and 8× MIC. In parallel, CFU from each independent culture was measured by spotting 10-fold serial dilutions on MHII agar plates and incubated at 37°C for 18 h. Colonies were counted at days 1, 2, and 3 postinoculation. FOR was calculated as the ratio of the total number of resistant colonies relative to the total CFU plated. For strains that had no resistant colonies growing on plates, the p0 method was used to calculate the FOR (FOR = m/total CFU plated, where m = −ln p0 and p0 is the proportion of cultures with no mutants; 0.7 ≥ p0 ≥ 0.1), as described previously ([71]). Colonies were picked and resuspended in 30 μl MHBII broth medium, and 10 μl was plated on an MHII agar plate containing G0790 to be used to determine the MIC. Of the remaining 20 μl, half was used to inoculate 1.5 ml MHBII broth medium containing G0790 and grown at 37°C for 18 h to generate cell lysates for Western blot analysis, isolate genomic DNA (gDNA) for whole-genome sequencing, and for frozen glycerol stocks.

Question: Which results are given for `CCCCCC[C@H]1OC(=O)CNC(=O)[C@H]([C@H](C)O)NC(=O)[C@H](CN)NC(=O)[C@H](C2CCCCC2)NC(=O)[C@H](CCC)N(C)C(=O)[C@@H]1C` [G0790]?
Answer: Activity against S. aureus USA300 (S. aureus USA300): no increased activity; Activity against CFT073 imp4213 relative to GBM (E. coli CFT073 imp4213): more active than GBM; MIC against A. baumannii compared to GBM (A. baumannii 17978): modestly decreased MIC; MIC (E. coli CFT073 Δlpp; CFT073 Δlpp parent, resistant-strain study): 19.5 µg/mL (≈ 29.2 µM); Susceptibility of CFT073 Δlpp relative to parental WT (E. coli CFT073 Δlpp; in words): more resistant to G0790 than the parental WT strain; WT/tolC MIC shift (E. coli MG1655 ΔtolC): ~31 fold; Effect of LspA overexpression or lpp deletion on inhibition of WT CFT073 and CFT073 imp4213 (E. coli CFT073(pBADlspA)): decreased upon LspA overexpression or lpp deletion; MIC ([1]; CFT073 4×-R1, ISEc10-istB insertion (3′ of lpp)): 19.5 µg/mL (≈ 29.2 µM); MIC ([1]; CFT073 4×-R2, Lpp p.Asp54fs, Non-lspA_GA): 19.5 µg/mL (≈ 29.2 µM); MIC ([1]; CFT073 4×-R3, lspA_GA): 19.5 µg/mL (≈ 29.2 µM); MIC ([1]; CFT073 4×-R4, lpp deletion, Non-lspA_GA): 19.5 µg/mL (≈ 29.2 µM); MIC ([1]; CFT073 4×-R6, ISEc10-istB insertion (3′ of lpp)): 39 µg/mL (≈ 58.5 µM); MIC ([1]; CFT073 4×-R7, ISEc10-istB insertion (3′ of lpp), Non-lspA_GA): 39 µg/mL (≈ 58.5 µM); MIC ([1]; CFT073 4×-R9, lpp deletion): 19.5 µg/mL (≈ 29.2 µM); MIC ([1]; CFT073 4×-R10, lspA_GA): 19.5 µg/mL (≈ 29.2 µM); MIC ([1]; CFT073 8×-R1, lspA_GA): 19.5 µg/mL (≈ 29.2 µM); MIC ([1]; CFT073 8×-R3, 5′ lpp deletion, Non-lspA_GA): 39 µg/mL (≈ 58.5 µM); MIC ([1]; CFT073 8×-R4, lpp deletion): 39 µg/mL (≈ 58.5 µM); MIC ([1]; CFT073 8×-R5, ISEc10-istB insertion (5′ of lpp), lspA_GA): 39 µg/mL (≈ 58.5 µM); MIC ([1]; CFT073 8×-R6, lpp deletion, Non-lspA_GA): 19.5 µg/mL (≈ 29.2 µM)
